Source: PubChem BioAssay (NCI)
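1) Cells in 96-well plates. 2) Compound, 48 h, 5 concentrations. 3) Linear interpolation between surrounding doses. 4) Unreached endpoint = highest concentration. The concentration for full growth arrest is given as TGI.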

How the values were obtained:
Experiment in all cases: NCI anticancer screen, dose series, 48 h
[1] = tested on: KM12 colon
[2] = tested on: MCF7 breast
[3] = tested on: UO-31 renal
[4] = tested on: SK-MEL-28 melanoma
[5] = tested on: HOP-92 NSCLC
[6] = tested on: HCT-116 colon
[7] = tested on: TK-10 renal
[8] = tested on: ACHN renal
[9] = tested on: OVCAR-4 ovarian
[10] = tested on: DU-145 prostate

Compound	TGI [1]	TGI [2]	TGI [3]	TGI [4]	TGI [5]	TGI [6]	TGI [7]	TGI [8]	TGI [9]	TGI [10]
CCCCc1ccc(-n2sc3ncc(-c4ccccc4)cc3c2=O)cc1	> 100 µM	> 100 µM	> 100 µM	> 100 µM	> 100 µM	> 100 µM	> 100 µM	> 100 µM	> 100 µM	> 100 µM
O=c1oc(-c2ccc(O)cc2)cc2cc(O)ccc12	68 µM	52.9 µM	81.3 µM		96.2 µM	39 µM	> 100 µM	> 100 µM	> 100 µM	> 100 µM
O=C(Nc1cccc(F)c1)c1cc2ccc(O)cc2oc1=Nc1cccc(F)c1	> 100 µM	> 100 µM	> 100 µM	> 100 µM		> 100 µM		> 100 µM	> 100 µM	> 100 µM
Nc1ccccc1C#CC(=O)c1cccc(C(F)(F)F)c1	82.1 µM	9.91 µM	2.55 µM		4.84 µM	> 100 µM	39.1 µM		5.51 µM	37.1 µM
CC(C)(C)C(=O)Oc1ccc(/C=C/C(=O)c2ccc(OC(=O)C(C)(C)C)cc2)cc1	38.5 µM	> 100 µM		> 100 µM	> 100 µM	71.4 µM	> 100 µM	> 100 µM	> 100 µM	> 100 µM
COC(=O)CCC1(CCC(=O)OC)CCCCCCC(CCC(=O)OC)(CCC(=O)OC)C(=O)C1=O	> 100 µM	> 100 µM	76.7 µM	> 100 µM	> 100 µM	> 100 µM	> 100 µM	> 100 µM		> 100 µM
CCOP(=O)(OCC)/C(C#N)=C/c1ccccn1	> 100 µM	> 100 µM		> 100 µM	> 100 µM	> 100 µM	> 100 µM	> 100 µM	> 100 µM	> 100 µM
Cn1c(=Nc2ccc(Cl)cc2)sc2ccccc21	> 100 µM		> 100 µM	> 100 µM	85.7 µM	> 100 µM	98.1 µM	> 100 µM	> 100 µM	> 100 µM
O=C(c1ccccc1)N1C(=O)N(c2ccccc2)C(=Nc2ccccc2)C1=Nc1ccccc1	> 100 µM		> 100 µM	> 100 µM	> 100 µM	> 100 µM	> 100 µM	> 100 µM	> 100 µM	> 100 µM
CC1(C)CC(=O)c2c(nc3c(ccc4ccccc43)c2-c2ccc(NC(=O)CCC(=O)Nc3ccc(-c4c5c(nc6c4ccc4ccccc46)CC(C)(C)CC5=O)cc3)cc2)C1	> 100 µM	> 100 µM	> 100 µM	> 100 µM	> 100 µM	> 100 µM	> 100 µM	> 100 µM		> 100 µM
O=C(O)c1nc2ccc(C(F)(F)F)cc2nc1Nc1ccc(Cl)c(Cl)c1	20.5 µM	66.7 µM	18.2 µM	26.6 µM		17.1 µM	> 100 µM	49.7 µM	76.1 µM	
Cc1ccc(S(=O)C[C@](NC(=O)OCc2ccccc2)(Sc2ccccc2)C(F)F)cc1 (some centres not stated)	31.9 µM		22.3 µM	38.1 µM	42.9 µM	34.8 µM	42.6 µM	45.5 µM	41.4 µM	45.6 µM
CN=C(Nc1ccc(OC)c2ccccc12)SC	> 10 µM	> 10 µM		> 10 µM	> 10 µM	> 10 µM	> 10 µM	> 10 µM	> 10 µM	> 10 µM
O=C1C[C@@]23CCC4(CC2CCC[C@H]3O1)OCCO4 (some centres not stated)	> 100 µM	> 100 µM		> 100 µM	> 100 µM	> 100 µM		> 100 µM	> 100 µM	> 100 µM
Cc1ccc(/C=C2\NC(=S)NC2=O)cc1	> 100 µM	> 100 µM	> 100 µM	> 100 µM		> 100 µM	> 100 µM		> 100 µM	> 100 µM
O=c1[nH]ncc2[nH]c3c4ccccc4ccc3c12	> 100 µM	54.9 µM	> 100 µM		87.1 µM	> 100 µM	> 100 µM	> 100 µM	> 100 µM	> 100 µM
Cc1ccc(S(=O)(=O)CNC(=O)C(O)(O)C(F)(F)F)cc1	> 100 µM	> 100 µM	> 100 µM	> 100 µM	> 100 µM	> 100 µM	> 100 µM		> 100 µM	> 100 µM
Nc1ccc(-c2nc3ccc(F)cc3s2)cc1Cl	> 100 µM	> 100 µM	> 100 µM	> 100 µM	> 100 µM		> 100 µM	> 100 µM	> 100 µM	> 100 µM
Clc1ccc(-c2cc(-c3cc4cc(Br)ccc4nc3Cl)on2)cc1	> 50 µM	43.8 µM	> 50 µM	29.3 µM	> 50 µM	30.7 µM		> 50 µM	> 50 µM	> 50 µM
C/C(=N\NC(=O)c1ccc(Cl)cc1)c1nc2ncccc2[nH]1	> 100 µM	> 100 µM	> 100 µM	> 100 µM		> 100 µM	64.9 µM	44.7 µM	47.9 µM	> 100 µM
O=[N+]([O-])c1ccc(C2ON=C(c3ccccc3)N2C23CC4CC(CC(C4)C2)C3)cc1 (configuration not stated)	> 10 µM	> 10 µM		> 10 µM	> 10 µM	> 10 µM	> 10 µM	> 10 µM	> 10 µM	> 10 µM
CC(C)(C)OC(=O)N1NC(c2ccccc2)CC1c1ccccc1 (configuration not stated)	41.9 µM	61 µM	53.2 µM		> 100 µM	> 100 µM	> 100 µM	68.6 µM		> 100 µM
COc1cc(C(=O)Oc2c(C(C)=O)sc3c2c(=O)n(-c2ccccc2)c(=S)n3-c2ccccc2)cc(OC)c1OC	50.8 µM	44.8 µM		49.5 µM	55.8 µM	36.2 µM	> 100 µM	66 µM	64.2 µM	50.6 µM
